Measured values reported in patent publication EP0547705A1, “Pharmacologically active tricyclic benzotriazepine derivatives” (CONSEJO SUPERIOR DE INVESTIGACIONES CIENTIFICAS, priority 1991, dated 1993).

Key:
[1] = Antagonism of the effects of tetrabenazine (ptosis, akinesia, hypothermia), antidepressant activity; assay type: in vivo; conditions: for prevents ptosis: 25 mg/kg p.o., tetrabenazine-induced ptosis; for antagonism to hypothermia produced by tetrabenazine: dose not restated (25 mg/kg p.o. given for ptosis in same sentence)
Experimental: The antidepressant activity of these compounds is measured in terms of their capacity of antagonizing the effects of tetrabenazine (ptosis, akinesia and hypothermia), this action being characteristic of antidepressants such as amitriptiline or thianeptine (New Drugs: Discovery and Development. A.A. Rubin (Ed.), Marcel Dekker, Inc. New York-Basel, 203 (1978.)) For example, 2-[(5,10-dihydro-4,4-dioxo-5-methylthieno[3,4-c][2,1]benzothiazepin-10-yl)oxy]-N-methylethylamine (example 53) and 2-[(4,9-dihydro-2,9-dimethyl-10,10-dioxo-2H-pyrazolo[3,4-c][2,1]-benzothiazepin-4-yl)oxy]-1-ethylpyrrolidine (example 91) prevents ptosis at 25 mg/kg p.o., 100% and 90%, respectively, while the antagonism to hypothermia produced by tetrabenazine when administered is 85 % and 75 %, respectively.

[2] = Siegmund test (inhibition of pain); assay type: in vivo; conditions: 100 mg/kg p.o.
Experimental: (§1) The compounds of formula I are antidepressant, diuretic, antihypertensive, antihistamic, anticonvulsive, antipyretic, anti-inflammatory and/or analgesic agents. […] Exp. Biol. Med. 95, 729 (1957.)] In connection with its activity, this compound is very safe with a LD₅₀ of 1250 mg/kg p.o. in mice.

[3] = Acute toxicity LD50 p.o. in mice; conditions: mouse, in vivo, po, read-out: LD₅₀
Experimental: as §1

SMILES	prevents ptosis [1] [%]	antagonism to hypothermia produced by tetrabenazine [1] [%]	inhibition of pain [2] [%]	LD50 [3] [mg/kg]
CNCCOC1c2ccccc2N(C)S(=O)(=O)c2cscc21 (stereo not drawn) [example 53, 2-[(5,10-dihydro-4,4-dioxo-5-methylthieno[3,4-c][2,1]benzothiazepin-10-yl)oxy]-N-methylethylamine]	100	85		
CN1c2ccccc2C(OCCN2CCCC2)c2cn(C)nc2S1(=O)=O (stereo not drawn) [example 91]	90	75		
CN1c2ccccc2C(O)c2sccc2S1(=O)=O (stereo not drawn) [example 1, 5,10-dihydro-4,4-dioxo-10-hydroxy-5-methylthieno[3,2-c][2,1]benzothiazepine]			92	1250
